One assay deals with UM-UC-9 engineered cells. Nature of the assay: Cell proliferation / short-term viability assay, CellTiter-Glo 144 h. The assay is classed as cell-based, human. Particulars: read-out: CTGlo 144 h UMUC9.5, G150. An outline of the steps: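 Viability read by CellTiter-Glo 2.0 luminescence at day 7 versus DMSO-vehicle wells and a T0 plate measured on day 0. Cells: UM-UC-9 engineered assay-ready stocks, 500 cells/well in high-glucose DMEM with 10% FBS, 37° C, 5% CO2.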
(ATP-based viability assays read luminescence as a measure of living cells.)

For the next assay, the target named is T1, His6-TEV-PPARγ-(234-505) (Homo sapiens, UniProt P37231).
T1 construct: The His6-TEV-PPARγ-(234-505) protein for assay was expressed and purified; TEV cleavage site (N); made in house
T1 sequence (P37231 234-505): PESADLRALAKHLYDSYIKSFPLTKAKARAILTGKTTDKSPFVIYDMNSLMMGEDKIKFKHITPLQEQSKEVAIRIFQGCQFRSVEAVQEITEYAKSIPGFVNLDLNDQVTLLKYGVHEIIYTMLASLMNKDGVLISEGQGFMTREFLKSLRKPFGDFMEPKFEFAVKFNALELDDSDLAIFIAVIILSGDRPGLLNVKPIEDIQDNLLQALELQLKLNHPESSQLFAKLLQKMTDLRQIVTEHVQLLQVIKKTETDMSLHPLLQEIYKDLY
Briefly: TR-FRET Assay to Measure Co-R Peptide Recruitment to PPARγ. The class given is biochemical. Particulars: Co-R peptide (SMRT-ID2) recruitment; top final concentration 20 μM; read-out: TR-FRET i-Ag; AC50. An outline of the steps:
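Corepressor recruitment is measured by adding terbium-labeled anti-His antibody and FITC SMRT-ID2 peptide, at 5 and 200 nM final, after a 20-minute room-temperature protein–compound incubation. After one further hour, signal is converted to percent response between DMSO and 500 nM T0070907 wells.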
Background: TR-FRET usually uses a lanthanide donor and a delayed reading to cut background.

pIC50: −log10 of the molar value. Where two headings read alike, the source gives them in different places.

In the case of `COc1cc(-c2cc(C(=O)N3CC[C@H](C(=O)NCc4ncc(F)cn4)CC34CC4)[nH]n2)c(F)cn1` [Example 512, (S)-4-(3-(5-fluoro-2-methoxypyridin-4-yl)-1H-pyrazole-5-carbonyl)-N-((5-fluoropyrimidin-2-yl)methyl)-4-azaspiro[2.5]octane-7-carboxamide], the pIC50 in the assay on UM-UC-9 engineered cells (Homo sapiens, UM-UC-9, 144 h) was 7.01. The AC50 on His6-TEV-PPARγ-(234-505) worked out at 11.2 nM.
With `COc1cc(-c2cc(C(=O)N3CC[C@H](C(=O)NCc4cccnc4C(F)(F)F)CC34CC4)[nH]n2)c(F)cn1` [Example 513, (S)-4-(3-(5-fluoro-2-methoxypyridin-4-yl)-1H-pyrazole-5-carbonyl)-N-((2-(trifluoromethyl)pyridin-3-yl)methyl)-4-azaspiro[2.5]octane-7-carboxamide], the pIC50 in the assay on UM-UC-9 engineered cells was 7.81. At His6-TEV-PPARγ-(234-505), the AC50 was 6.1 nM.
Take `COc1cc(-c2cc(C(=O)N3CC[C@H](C(=O)NCC45CC(C(F)(F)F)(C4)C5)CC34CC4)[nH]n2)c(F)cn1` [Example 515, (S)-4-(3-(5-fluoro-2-methoxypyridin-4-yl)-1H-pyrazole-5-carbonyl)-N-((3-(trifluoromethyl)bicyclo[1.1.1]pentan-1-yl)methyl)-4-azaspiro[2.5]octane-7-carboxamide]: in the assay with UM-UC-9 engineered cells (Homo sapiens, UM-UC-9, 144 h), the pIC50 was 8.22. Moreover, the AC50 at His6-TEV-PPARγ-(234-505) was found to be 5 nM.
For `COc1cc(-c2cc(C(=O)N3CC[C@H](C(=O)NCc4cnccc4C(F)(F)F)CC34CC4)n[nH]2)c(F)cn1` [Example 516, (S)-4-(5-(5-fluoro-2-methoxypyridin-4-yl)-1H-pyrazole-3-carbonyl)-N-((4-(trifluoromethyl)pyridin-3-yl)methyl)-4-azaspiro[2.5]octane-7-carboxamide] the same measures were 8.00 and 3.3 nM.
Taken in the same sequence, the figures for `COc1cc(-c2cc(C(=O)N3CC[C@H](C(=O)NCc4sc(C)nc4C(F)(F)F)CC34CC4)[nH]n2)c(F)cn1` [Example 517, (S)-4-(3-(5-fluoro-2-methoxypyridin-4-yl)-1H-pyrazole-5-carbonyl)-N-((2-methyl-4-(trifluoromethyl)thiazol-5-yl)methyl)-4-azaspiro[2.5]octane-7-carboxamide] were 7.69 and 7.9 nM.
Taken in the same sequence, the figures for `COc1cc(-c2cc(C(=O)N3CC[C@H](C(=O)NCc4nccn4C(F)(F)F)CC34CC4)[nH]n2)c(F)cn1` [Example 519, (S)-4-(3-(5-fluoro-2-methoxypyridin-4-yl)-1H-pyrazole-5-carbonyl)-N-((1-(trifluoromethyl)-H-imidazol-2-yl)methy)-4-azaspiro[2.5]octane-7-carboxamide] were 7.72 and 4.3 nM.
Consider `COc1cc(-c2cc(C(=O)N3CC[C@H](C(=O)NC45COC(CO)(C4)C5)CC34CC4)n[nH]2)c(F)cn1` [Example 520, (S)-4-(5-(5-fluoro-2-methoxypyridin-4-yl)-1H-pyrazole-3-carbonyl)-N-(1-(hydroxymethyl)-2-oxabicyclo[2.1.1]hexan-4-yl)-4-azaspiro[2,5]octane-7-carboxamide], for which, in the assay on UM-UC-9 engineered cells (Homo sapiens, UM-UC-9, 144 h), the pIC50 was less than 5.00. Also, the AC50 at His6-TEV-PPARγ-(234-505) was 784 nM.
For `COc1cc(-c2cc(C(=O)N3CC[C@H](C(=O)NCc4ncc(N5CCN(C)CC5)cc4Cl)CC34CC4)n[nH]2)c(F)cn1` [Example 521, (S)—N-((3-chloro-5-(4-methylpiperazin-1-yl)pyridin-2-yl)methyl)-4-(5-(5-fluoro-2-methoxypyridin-4-yl)-1H-pyrazole-3-carbonyl)-4-azaspiro[2.5]octane-7-carboxamide] the same measures were 7.70 and 1.8 nM.
For `COc1cc(-c2cc(C(=O)N3CC[C@H](C(=O)NCc4ccc5c(c4)B(O)OC5(C)C)CC34CC4)[nH]n2)c(F)cn1` [Example 522, (S)-4-(3-(5-fluoro-2-methoxypyridin-4-yl)-1H-pyrazole-5-carbonyl)-N-((1-hydroxy-3,3-dimethyl-1,3-dihydrobenzo[c][1,2]oxaborol-6-yl)methyl)-4-azaspiro[2.5]octane-7-carboxamide] the same measures were 7.84 and 1.4 nM.

Source of the values: patent US12606541B2, “PPARg modulators and methods of use” (Eisai R&D Management Co., Ltd., priority 2020, dated 2026).
